This is an account of results in paper PMC12297955, “Comparative Study: Biguanide-, Sulfonamide-, and Natural Agent-Based Interventions in an In Vivo Experimental Diabetes Model” (Medicina, 2025).

Details of data set [1]: method as in earlier work. The note with it: rats, ref 42 (Choi et al. 2006); cited from earlier work.
Data set [2] is described as follows: Plasma steady-state concentration by HPLC and volume of distribution. The following applies: female, Wistar, rat, oral, 300 mg/kg/day, rats, oral daily dosing 5 weeks, HPLC, metformin 300 mg/kg/day, S 150 mg/kg/day.
Description: At the end of the experimental period, blood samples were collected from the retro-orbital plexus under ketamine anesthesia (75 mg/kg body weight). Samples were collected into EDTA-coated tubes and stored at −20 °C until biochemical analyses were performed. Finally, the animals were humanely euthanized using Thiopental 0.01%.
Extraction of the target compounds from whole blood samples was performed using a liquid–liquid extraction method, with dichloromethane as the organic solvent (sample: solvent ratio 1:2). The extraction was carried out under acidic conditions (pH 3, using 4% acetic acid). Following centrifugation, the organic phase was evaporated under a stream of high-purity nitrogen gas at 40 °C (Thermo Scientific, Bremen, Germany). The resulting dry residue was reconstituted in 500 µL of 10% methanol in water.
Separation was achieved on a 150-4.6 LiChrospher®RP-18, 5 µm, column (Merck, Darmstadt, Germany). […] The flow rate was set to 1.0 mL/min, and the total run time for each analysis was 30 min.
The volume of distribution at steady state (Vd) was calculated using the following formula: Vd=D/Css(L) where D represents the administered dose, calculated individually based on each animal’s body weight (mg/kg), and Css is the steady-state plasma concentration (mg/L).
For data set [3], the system named is alloxan-induced diabetic rats. Description: Blood glucose level in alloxan-induced diabetes model. The following applies: mean ± SD; for Blood glucose (BG) level, mean: alloxan-induced diabetic rats, oral gavage daily for 5 weeks, metformin 300 mg/kg/day, S 150 mg/kg/day, sage extract 150 mg/kg/day; for Average blood glucose reduction (pre- vs post-treatment): end of week 3 vs end of week 8, oral daily 5 weeks, metformin 300, S 150, sage 150 mg/kg/day. It is filed as in vivo, Wistar female rats. As for the experimental part:
The in vivo experiment was conducted using Wistar female rats, obtained through the “Grigore T. Popa” University of Medicine and Pharmacy (UMF) Iași, from the Cantacuzino Institute in Bucharest, Romania. Throughout the experimental period, the animals were housed at the CEMEX biobase, within the UMF “Grigore T. Popa” Iași. […] Female rats were selected in alignment with the broader research objective focused on diabetes-induced alterations of the female reproductive system.
Following a 7-day acclimatization period, diabetes was induced in groups 2–6 by a single intraperitoneal injection of alloxan at a dose of 150 mg/kg body weight.
Blood glucose (BG) was assessed 5 days post-administration using peripheral tail vein blood. A threshold of 200 mg/dL was used to confirm severe hyperglycemia. […] The end of week 3 thus marked the point of confirmed diabetes and the onset of pharmacological interventions. […] The full experimental timeline extended over 8 weeks.
To minimize potential confounders, all experimental procedures—including compound administration and blood glucose level measurements— were performed at the same time of day for all animals. Blood glucose (BG) levels were monitored weekly using a portable glucometer (tail vein blood).
To quantify the hypoglycemic effect of the applied treatments, the percentage decrease in blood glucose was calculated based on pre- and post-treatment values using the following formula: Absolute decrease in blood glucose %=blood glucose (pre−treatment)−blood glucose (post−treatment)/blood glucose (pre−treatment)×100

Values joined by “and” are separate entries in the source; they are usually repeats but may differ in a detail not shown here. Identical values can stand only once.

For `CN(C)C(=N)N=C(N)N` [metformin], the “Fraction of oral dose subject to gastrointestinal and hepatic first-pass effects” value in data set [1] was “approximately 65%”. The concentration at 5 weeks was 5320 ± 1580 ng/mL in data set [2] (Average plasma concentration (steady state), mean ± SD) and 3170 to 7540 ng/mL in data set [2] (Plasma concentration, range). Further, in data set [3], the “Blood glucose (BG) level, mean” value was 224.8 ± 192.78 mg/dL. The “Average blood glucose reduction (pre- vs post-treatment)” value in data set [3] is 36.4% and 36.46 ± 32.5% and 36.46%.

“N-(diaminomethylene)-4-methylbenzenesulfonamide”: in data set [3], the “Blood glucose (BG) level, mean” value was determined as 236.0 ± 94.70 mg/dL; the “Average blood glucose reduction (pre- vs post-treatment)” value is 40.6% and 40.95 ± 15.94%.
